Laboratory results: patent US20190083202A1, “APPARATUS AND METHODS USEFUL FOR REMODELING MAXILLOFACIAL BONE USING LIGHT THERAPY, AN ORTHODONTIC APPLIANCE, AND OPTIONALLY, VITAMIN D ADMINISTRATION” (priority 2017, published 2019)

Assay: Paper example: vitamin D3 supplementation with daily light and fixed orthodontic appliance
Type: in vivo, human
Conditions: passive phase; continued vitamin D3 2000 to 12,000 IU orally per day
Protocol: In one example, an adult patient's Vitamin D3 blood-serum level is measured during their routine orthodontic-examination and -records appointment. Laboratory results can indicate that the patient's vitamin D3 serum levels are at 20 ng/ml, which is considered to be deficient and abnormal. In this example, the patient's orthodontic diagnosis is Class I mild crowding with 4 mm of crowding on the upper arch and 4 mm on the lower arch. An orthodontic treatment plan can be formulated to comprise the installation of a fixed orthodontic appliance with some mild expansion of the upper and lower arches.
In this example, the patient self-administers oral oil-based vitamin D3 capsules at an amount of 6000 IU per day for 3 months to increase and normalize their vitamin D3 serum levels. Laboratory serum testing can optionally be performed again after 3 months of vitamin D3 supplementation. The patient can maintains or adjusts their oral dose of vitamin D3 based on their subsequent lab results. It should be understood that there are a number of alternative oral and/or systemic dosing protocols for vitamin D administration that could be followed to achieve similar results. The dosing protocol outlined above is merely one of many approaches.
In this example, orthodontic treatment can start either after the 3 month period or no more than about three months prior. […]

C=C1CC[C@H](O)C/C1=C/C=C1\CCC[C@]2(C)[C@@H]([C@H](C)CCCC(C)C)CC[C@@H]12 [vitamin D3]
alveolar bone density around the teeth: increased
